Data published in BindingDB's records for doi:10.1021/jm800476q (Bristol Myers Squibb, 2008).

Molecular target: Hepatocyte growth factor receptor (Homo sapiens, UniProt P08581)
Experiment: Met Kinase Inhibition Assay
Conditions: pH 7.5; 30 °C

Chain of Hepatocyte growth factor receptor (P08581 whole entry): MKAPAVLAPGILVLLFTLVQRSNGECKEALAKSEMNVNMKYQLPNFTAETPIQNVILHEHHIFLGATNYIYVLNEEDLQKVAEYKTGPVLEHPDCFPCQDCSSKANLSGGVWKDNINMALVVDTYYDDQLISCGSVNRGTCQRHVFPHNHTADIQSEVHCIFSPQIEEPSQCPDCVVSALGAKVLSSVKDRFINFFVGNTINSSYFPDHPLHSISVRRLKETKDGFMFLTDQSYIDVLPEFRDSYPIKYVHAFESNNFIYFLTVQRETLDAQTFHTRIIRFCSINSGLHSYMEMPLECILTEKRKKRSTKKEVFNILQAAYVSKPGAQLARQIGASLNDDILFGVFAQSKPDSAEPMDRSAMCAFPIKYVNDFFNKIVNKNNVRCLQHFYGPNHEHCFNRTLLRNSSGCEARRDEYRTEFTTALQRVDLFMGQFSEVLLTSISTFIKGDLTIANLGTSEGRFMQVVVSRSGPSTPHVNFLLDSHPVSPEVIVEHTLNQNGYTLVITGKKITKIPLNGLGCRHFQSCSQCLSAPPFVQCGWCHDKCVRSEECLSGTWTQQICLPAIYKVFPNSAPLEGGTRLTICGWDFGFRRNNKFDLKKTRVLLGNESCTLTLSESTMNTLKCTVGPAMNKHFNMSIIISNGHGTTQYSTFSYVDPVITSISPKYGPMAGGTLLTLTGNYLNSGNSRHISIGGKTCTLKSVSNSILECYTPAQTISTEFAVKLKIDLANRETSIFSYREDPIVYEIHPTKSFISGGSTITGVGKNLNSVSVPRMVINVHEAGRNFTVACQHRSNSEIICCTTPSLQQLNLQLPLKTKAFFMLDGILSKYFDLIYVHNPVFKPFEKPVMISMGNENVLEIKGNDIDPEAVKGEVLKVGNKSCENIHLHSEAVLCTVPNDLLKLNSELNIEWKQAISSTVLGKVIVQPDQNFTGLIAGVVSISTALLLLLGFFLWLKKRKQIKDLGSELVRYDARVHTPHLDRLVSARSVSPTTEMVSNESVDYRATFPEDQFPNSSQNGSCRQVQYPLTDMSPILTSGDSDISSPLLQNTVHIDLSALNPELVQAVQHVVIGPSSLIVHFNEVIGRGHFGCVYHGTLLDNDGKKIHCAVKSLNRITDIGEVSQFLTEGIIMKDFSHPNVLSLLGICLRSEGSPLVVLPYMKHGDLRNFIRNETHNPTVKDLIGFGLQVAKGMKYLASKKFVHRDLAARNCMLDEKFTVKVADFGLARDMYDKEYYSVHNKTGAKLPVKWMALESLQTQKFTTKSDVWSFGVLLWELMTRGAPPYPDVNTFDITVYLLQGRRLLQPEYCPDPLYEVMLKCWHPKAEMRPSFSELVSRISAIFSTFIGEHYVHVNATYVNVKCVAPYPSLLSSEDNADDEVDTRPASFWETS

IC50 [nM]	SMILES
5	O=C(Nc1ccc(Oc2ccnc3[nH]ccc23)c(F)c1)c1cn(-c2ccc(Cl)c(F)c2)cc(-c2ccc(F)cc2)c1=O [1-(4-chloro-3-fluorophenyl)-N-(3-fluoro-4-{1H-pyrrolo[2,3-b]pyridin-4-yloxy}phenyl)-5-(4-fluorophenyl)-4-oxo-1,4-dihydropyridine-3-carboxamide]
2.3	COc1ccc(-n2cc(C(=O)Nc3ccc(Oc4ccnc5[nH]ccc45)c(F)c3)c(=O)c(-c3ccc(F)cc3)c2)cc1F [1-(3-fluoro-4-methoxyphenyl)-N-(3-fluoro-4-{1H-pyrrolo[2,3-b]pyridin-4-yloxy}phenyl)-5-(4-fluorophenyl)-4-oxo-1,4-dihydropyridine-3-carboxamide]
